According to patent US10793514B2, “Glutamine transport inhibitors and methods for treating cancer” (Vanderbilt University, priority 2016, dated 2020):
“Also recorded” adds a separate entry of the source.

Experiments:
[1] = system: HCT-116 (KRAS G13D) cell-line xenografts; assay: HCT-116 xenograft chronic exposure study; type: in vivo, mouse; settings: 75 mg/kg per day, 21 days
Description: Tissues were sectioned (5 μm thickness) and stained for pS6 (Cell Signaling, #4858) and caspase 3 (Cell Signaling #9661). Tissue slides were imaged at 20× magnification.
For in vivo studies, cell-line xenograft tumors were propagated in 6-week old, female athymic nude mice from immortalized cell lines. For HCC-1806 (10×10^6 cells), HCT-116 (5×10^6), and HT29 (10×10^6) cells were injected. Palpable tumors were typically visible within 2-3 weeks. For imaging studies (HCC-1806), tumors were propagated to approximately 500 mm^3. For treatment studies (HCT-116, HT29) tumors were propagated to approximately 200 mm^3 prior to therapy and were randomly assigned into treated and untreated cohorts. For generating the PDX, primary tumor tissue was obtained form a patient at Vanderbilt University Medical Center under an IRB approved protocol. The tumor tissue was genotyped within the VANTAGE core facility. Xenograft was generated as previously described 41. Briefly, tumor tissues were sectioned into approximately 125 cubic millimeter pieces then implanted subcutaneously without further manipulation. […] Tumor volumes were measured manually using calipers every third day and quantified using the formula V=W·L·(H/2).

[2] = system: HT29 xenografts; assay: Global metabolomic analysis of HT29 xenografts; type: in vivo, mouse; settings: 21 consecutive days
Description: Metabolomic data acquisition was outsourced to Metabolon, Inc. Samples were prepared using the automated MicroLab STAR® system from Hamilton Company. To remove protein, dissociate small molecules bound to protein or trapped in the precipitated protein matrix, and to recover chemically diverse metabolites, proteins were precipitated with methanol under vigorous shaking for 2 min (Glen Mills GenoGrinder 2000) followed by centrifugation. The resulting extract was divided into five fractions: two for analysis by two separate reverse phase (RP)/UPLC-MS/MS methods with positive ion mode electrospray ionization (ESI), one for analysis by RP/UPLC-MS/MS with negative ion mode ESI, one for analysis by HILIC/UPLC-MS/MS with negative ion mode ESI, and one sample was reserved for backup. Samples were placed briefly on a TurboVap® (Zymark) to remove the organic solvent. All methods utilized a Waters ACQUITY ultra-performance liquid chromatography (UPLC) and a Thermo Scientific Q-Exactive high resolution/accurate mass spectrometer interfaced with a heated electrospray ionization (HESI-II) source and Orbitrap mass analyzer operated at 35,000 mass resolution. The sample extract was dried then reconstituted in solvents compatible to each of the four methods. Each reconstitution solvent contained a series of standards at fixed concentrations to ensure injection and chromatographic consistency. One aliquot was analyzed using acidic positive ion conditions, chromatographically optimized for more hydrophilic compounds. […] Another aliquot was also analyzed using acidic positive ion conditions, however it was chromatographically optimized for more hydrophobic compounds. […] Another aliquot was analyzed using basic negative ion optimized conditions using a separate dedicated C18 column. […] The fourth aliquot was analyzed via negative ionization following elution from a HILIC column (Waters UPLC BEH Amide 2.1×150 mm, 1.7 μm) using a gradient consisting of water and acetonitrile with 10 mM Ammonium Formate, pH 10.8. […] Peaks were quantified using area-under-the-curve. […]

[3] = Tolerability in chronic exposure studies (body mass, liver pathology); type: in vivo, mouse; settings: 75 mg/kg per day, 21 days, vs vehicle
[4] = system: activated CD8-positive T-cells; assay: Viability and activation of CD8-positive T-cells; type: cell-based, mouse; settings: 96 hrs
Description: CD8+ cells were isolated from the spleens of 8-12 week old C57BL6 mice on standard chow from Jackson Labs maintained under IACUC approved protocols. CD8+ cells were stained using the proliferative dye Cell Trace Violet (LifeTech) before stimulation as per manufacturer's protocol. Cells were stimulated on 5 ug/mL anti-CD3/CD28-coated plates in media containing IL-2 (‘activated’, 10 ng/mL), or in tissue-culture treated plates in media containing IL-7 (‘naive’, 1 ng/mL) for up to 7 days. Cells were removed at each day described for viability, cell counts, proliferation, and surface markers of activation. Cell surface markers used were CD62L-FITC and APC, CD44-PECy5 and CD25-PE. All data were acquired in triplicate on a MacsQuant Analyzer (Miltenyi Biotec) and analyzed using FlowJo V10 (TreeStar software).

[5] = V-9302 concentration in whole blood with time; type: in vivo, mouse; settings: single dose 75 mg/kg, healthy mice
Description: Liquid chromatography-tandem mass spectroscopy (LC-MS/MS) analyses were performed via reverse phase chromatography using a Shimadzu Nexera X2 UPLC (Columbia, Md.) coupled with a QTrap® 5500 (Sciex, Framinghman, MA, USA). […] Blank samples were made using fresh whole blood applied to Mitra® Microsamplers and allowed to dry for at least 24 h. All data were collected using Sciex Analyst 1.6.2 software and analyzed with MultiQuant 3.0 software. Error is reported as standard deviation (SD).

[6] = target: ASCT1 (SLC1A4) (Mus musculus (Mouse), UniProt O35874); assay: Drug Affinity Responsive Target Stability (DARTS) assay, ASCT1; type: binding; settings: thermolysin
Sequence of ASCT1 (SLC1A4) (O35874 whole entry): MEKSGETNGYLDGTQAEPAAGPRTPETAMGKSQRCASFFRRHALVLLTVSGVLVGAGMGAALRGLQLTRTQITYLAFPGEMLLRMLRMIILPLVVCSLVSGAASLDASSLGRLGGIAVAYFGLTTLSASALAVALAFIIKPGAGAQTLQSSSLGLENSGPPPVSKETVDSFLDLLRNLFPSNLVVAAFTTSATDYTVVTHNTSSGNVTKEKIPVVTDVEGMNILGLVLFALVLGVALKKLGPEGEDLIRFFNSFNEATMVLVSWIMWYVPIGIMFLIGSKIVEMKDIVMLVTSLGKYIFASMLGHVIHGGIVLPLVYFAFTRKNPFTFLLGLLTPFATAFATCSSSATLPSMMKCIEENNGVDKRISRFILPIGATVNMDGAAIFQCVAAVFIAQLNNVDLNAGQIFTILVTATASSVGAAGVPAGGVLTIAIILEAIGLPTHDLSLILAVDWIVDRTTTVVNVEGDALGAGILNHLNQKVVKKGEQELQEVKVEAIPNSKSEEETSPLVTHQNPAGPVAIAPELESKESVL
Description: DARTS was carried out as previously described^15 using T-REx-293 cells with tetracycline-inducible expression of ASCT2 or lysate from 115 mg of homogenized mouse brain for ASCT1. […] Lysates were then incubated at room temperature with the protease Thermolysin (1:100 and 1:200 total enzyme to total substrate) for 30 min. ASCT2 was measured by immunoblotting (ASCT2 antibody: Millipore ABN73; ASCT1 antibody: Cell Signaling 8442).

Cc1cccc(COc2ccccc2CN(CCC(N)C(=O)O)Cc2ccccc2OCc2cccc(C)c2)c1 (stereo not shown) [Compound V-9302]
cleaved caspase 3 in tumor tissue ([1]; IHC): elevated levels of cleaved caspase 3
pS6 in tumor tissue ([1]; IHC): significantly decreased pS6
tumor growth ([1]; vs vehicle): prevented tumor growth
creatine-phosphate levels in treated tumors [2]: significantly reduced
oxidized glutathione (GSSG) and 4-hydroxy-nonenal-glutathione in tumors [2]: significantly elevated
reduction of N-acetylserine in treated tumors [2]: greater than 4 fold
liver pathology ([3]; athymic nude mice, H&E): similar; also recorded: no discernible difference
weight loss ([3]; chronic exposure): no significant weight loss
T-cell activation ([4]; CD44 expression): not impaired
T-cell viability ([4]; in vitro, relative to vehicle): unchanged relative to vehicle
half-life ([5]; mouse, whole blood): ~360 min
time to steady-state whole blood concentration [5]: 4 h
stabilization of ASCT1 [6]: not stabilized
